# Assay results taken from PubChem BioAssay AID504313 (Emory University Molecular Libraries Screening Center, 2011).
# The source made the active and inactive calls. How the calls were made is not given here.
# Molecular target: X-box-binding protein 1 (Homo sapiens) (UniProt P17861)
# Experiment: XBP1 reporter suppression in cells – counter-screen, dose response (AID 504313);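 further: CHO cells carrying an XBP1 reporter stimulated with tunicamycin; potency is for inhibition of the tunicamycin-induced reporter signal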
# Conditions: XBP1 reporter cell assay, percent of control
row,SMILES,IC50
1,CC(C)(C)c1ccc(C(=O)NNC(=O)c2cccc(Br)c2)cc1,> 10 µM (inactive)
2,CC(C)(C)c1cc(S(=O)(=O)CCc2ccccn2)cc(C(C)(C)C)c1F,inactive
3,O=C(NNc1ccccc1Br)C(O)(c1cccc(C(F)(F)F)c1)c1cccc(C(F)(F)F)c1,inactive
4,COc1ccc(C(=O)Nc2nnc(-c3ccco3)s2)cc1,inactive
5,O=c1c(Br)c(Br)cnn1-c1ccccc1,inactive
6,Cc1cc(C)n(-c2nc(Nc3ccccc3C(F)(F)F)nc(-n3nc(C)cc3C)n2)n1,inactive
7,CC1CCCC(NCC(O)COC(c2ccc(F)cc2)c2ccc(F)cc2)C1C (centres undefined),inactive
8,COc1ccccc1NCC(O)COc1ccc(C(C)(C)C)cc1 (centres undefined),inactive
9,COc1cc(NC(=O)COc2ccccc2[N+](=O)[O-])ccc1NC(=O)c1cccs1,> 10 µM (inactive)
10,COc1ccc(/C=C/C(=O)NC(=S)NNC(=O)c2cccnc2)cc1,> 10 µM (inactive)
11,CCNc1nc(Oc2c(Cl)cccc2Cl)cc(C(F)(F)F)n1,> 10 µM (inactive)
12,O=C(Nc1ccc(Oc2ccccc2)cc1)C1CCN(c2c3c(nc4ncnn24)CCC3)CC1,> 10 µM (inactive)
13,CC1CCC(C(C)C)C(OC(=O)COC(=O)c2cc(O)ccc2N)C1 (centres undefined),inactive
14,O=C(NC1CCCCC1)C(c1ccc(F)cc1)N(Cc1ccccc1)C(=O)CN1C(=O)c2ccccc2S1(=O)=O (centres undefined),inactive
15,O=S(=O)(NC1CC1)c1ccc(S(=O)(=O)N2CCCC3(CCCCC3)C2)cc1,inactive
16,COc1ccc2nc(Nc3nc(CSc4nc5ccccc5[nH]4)cc(=O)[nH]3)nc(C)c2c1,> 10 µM (inactive)
17,COc1cc(N(C(=O)Cc2cccs2)C(C(=O)NC2CCCCC2)c2ccc(C)cc2)ccc1-n1cnnn1 (centres undefined),> 10 µM (inactive)
18,CC(C)C[C@H](NC(=O)c1[nH]cnc1C(=O)Nc1ccccc1)C(=O)OC(C)(C)C,inactive
19,COc1ccc(-c2nc(NC(=O)Cn3ccc(C(F)(F)F)n3)sc2C)cc1,> 10 µM (inactive)
20,O=C1C=CC(=O)N1N(c1ccccc1)c1ccccc1,> 10 µM (inactive)
21,Cc1cc(C(=O)COC(=O)c2ccccc2O)c(C)n1Cc1cccs1,< 0.16 µM (inactive)
22,CCCCc1nc2ccccc2c(=O)n1NC(=O)c1c(O)c2ccccc2n(C)c1=O,> 10 µM (inactive)
23,Cn1c(=O)[nH]c(=O)c2c1nc([N+](=O)[O-])n2Cc1ccccc1,inactive
24,COc1cccc(N2CCN(c3ncnc4c3[nH]c3ccccc34)CC2C)c1 (centres undefined),inactive
25,OCCCNc1cc(-c2ccnc(Nc3cccc(Cl)c3)n2)ccn1,< 0.16 µM

row,SMILES,IC50
1,O=C1c2ccccc2-c2onc3ccc(Oc4ccccc4)c1c23,inactive
2,CCN1C=CC(=C2C(=O)c3ccccc3C2=O)C=C1,inactive
3,CC1(c2ccccc2)CC(C)(C)N2C(=O)C3(C(C#N)=C(N)Oc4cc(O)ccc43)c3cccc1c32 (centres undefined),> 10 µM (inactive)
4,COc1ccc(NC(=S)NC(NC(=O)/C=C/c2ccccc2)C(Cl)(Cl)Cl)cc1 (centres undefined),> 10 µM (inactive)
5,Nc1nc(-c2ccccc2)c(N=Nc2ccccc2Cl)s1,inactive
6,Cn1c2ccccc2c(=O)c2c(=O)n(C3CCCCCC3)c(C3CCCCC3)nc21,> 10 µM (inactive)
7,O=[N+]([O-])c1ccc(S(=O)(=O)CC(CN2CCCCC2)N2CCCCC2)cc1 (centres undefined),inactive
8,CCCCn1c(N2CCC(Cc3ccccc3)CC2)nc2c1c(=O)[nH]c(=O)n2C,> 10 µM (inactive)
9,COC(=O)c1ccccc1NC1=C/C(=N\S(=O)(=O)c2cccs2)c2ccccc2C1=O,inactive
10,Cc1nc2c(=O)n(C)c(=O)n(C)c2nc1Cl,inactive
11,CC(CNC(=S)Nc1cc(F)cc(F)c1)CSc1ccc(Cl)cc1 (centres undefined),> 10 µM (inactive)
12,Cc1ccc(C(C)C)c(OCC(=O)N/N=C/C2CCCCC2)c1,inactive
13,Cc1nn(CCC#N)c2nc(-c3ccccc3)cc(C(F)(F)F)c12,inactive
14,O=C(O)CSCC(=O)Nc1ccc(C2CCCCC2)cc1,inactive
15,O=C(Cn1c(C(F)(F)F)nc2ccccc21)N=Nc1c(O)[nH]c2ccc(Br)cc12,> 10 µM (inactive)
16,COc1ccccc1-n1cc([C@@H]2C[C@H]3CN(c4ccccc4)C(=O)[C@]34CCCN24)cn1,0.74 µM
17,Cc1cc(Cl)ccc1OCC(=O)N[C@@H](Cc1ccccc1)c1nc2ccccc2[nH]1,> 10 µM (inactive)
18,Cc1cccc(NS(=O)(=O)c2ccc(C3CCCCC3)cc2)c1,4.03 µM
19,O=c1c2ccccc2nc2n1CCN2Cc1ccc(Cl)cc1,> 10 µM (inactive)
20,COc1ccc(OCc2cccc(C(=O)O)c2)cc1,0.4 µM
21,CCOC(=O)c1c2ccc(OCC(=O)N/N=C/c3ccc(C)cc3)cc2n2ccccc12,inactive
22,C=C(C)COc1ccc(-c2n[nH]c(C)c2-c2ccc(Br)cc2)c(O)c1,inactive
23,Cc1cccc(/C=C2/S/C(=N/N=C3\CC4CCC3(C)C4(C)C)NC2=O)c1 (centres undefined),inactive
24,CC(C)=CCCC1(C)C=Cc2c(c(C)cc3c2[nH]c2cc(O)ccc23)O1 (centres undefined),inactive
25,COc1ccc(/C=C2\SC(=S)N(CCCC(=O)Nc3ccc(O)cc3)C2=O)cc1,< 0.16 µM

row,SMILES,IC50
1,CCOC(=O)C1=C(c2ccc(OC)cc2)C(=O)c2ccccc2C1=O,inactive
2,CC(C)(C)OC(=O)N[C@@H](Cc1ccccc1)c1nnc(S(=O)(=O)Cc2ccccc2)o1,inactive
3,CCSCCc1nnc(NC(=O)Nc2cccc(C(F)(F)F)c2)s1,4.74 µM
4,Cc1ccccc1CS(=O)(=O)c1nnc([C@H](Cc2ccccc2)NC(=O)OC(C)(C)C)o1,inactive
5,O=C(Nc1cccc(F)c1)N(Cc1ccc(Cl)cc1)CC(O)C(F)(F)F (centres undefined),inactive
6,CCc1ccc(/C=C2\SC(=S)N(CCCC(=O)Nc3ccccn3)C2=O)cc1,< 0.16 µM
7,Cc1cccc(N2CCN(C(=O)CS(=O)(=O)Cc3nc(-c4ccccc4F)oc3C)CC2C)c1 (centres undefined),> 10 µM (inactive)
8,NC(=O)c1ccc(C(F)(F)F)n(Cc2c(Cl)cccc2Cl)c1=O,inactive
9,CCCOC(=O)c1ccc(Oc2c(-c3ccc(OCC)cc3O)n[nH]c2C)cc1,inactive
10,C=C(C)C(=O)OC1(C(F)(F)F)Oc2cc(C)ccc2NC1=O (centres undefined),inactive
11,CCCCCCNC(=O)CC(c1ccccc1)c1cc(Br)ccc1O (centres undefined),inactive
12,OC(CNCC1CCCO1)Cn1c2ccc(Br)cc2c2cc(Br)ccc21 (centres undefined),> 10 µM (inactive)
13,Cc1ccc(N2C(=O)NC(=O)/C(=C\C=C\c3ccco3)C2=O)cc1,inactive
14,OC1(c2cccc(C(F)(F)F)c2)CCN(c2ncnc3c2[nH]c2ccc(F)cc23)CC1,3.86 µM
15,Cn1c(=O)c([N+](=O)[O-])c(Cl)c2ccccc21,inactive
16,Cc1ccccc1Oc1cc(-n2ncc(Cl)c(Cl)c2=O)ncn1,1.75 µM
17,CC1C/C(=C/c2ccccn2)C(=O)/C(=C/c2ccccn2)C1 (centres undefined),2.68 µM
18,O=C(OCC(F)(F)F)c1cccc(COc2ccc3ccccc3c2)c1,0.98 µM
19,COc1ccc(C(=O)c2c(C(F)(F)F)oc3c2C(=O)c2ccccc2C3=O)cc1,inactive
20,CCOc1ccc2nc(NC(=O)CSc3nnnn3C3CCCCC3)sc2c1,> 10 µM (inactive)
21,COc1ccc(C(=O)NNC(=O)c2ccccn2)cc1,inactive
22,Cc1cc(C)c2nc(C(F)(F)F)c(C#N)c(N)c2c1,> 10 µM (inactive)
23,CC(C)c1nnc(NC(=O)c2c(O)c3cccc4c3n(c2=O)CCC4)s1,4.37 µM
24,Cc1cc(C(C)(C)C)oc1C(=O)N1CCN(C(=O)c2oc(C(C)(C)C)cc2C)CC1,> 10 µM (inactive)
25,C=CCOC(=O)C1=C(C)NC(C)=C(C(=O)OCC=C)C1/C=C/c1ccccc1,inactive

row,SMILES,IC50
1,CCOC(=O)C(NC(=O)Nc1cccc(C)n1)(OCC(F)(F)F)C(F)(F)F (centres undefined),inactive
2,COc1cc2c(cc1OC)C(c1ccccc1)N(C(=O)CCl)CC2 (centres undefined),inactive
3,CC(C)(C)c1ccc(C(=O)Nc2ccc(CC(=O)O)cc2)o1,< 0.16 µM
4,COCCn1cnc2c(c1=O)c1nc3ccccc3nc1n2/N=C/c1cccc(OC)c1,inactive
5,C=CCn1c(CCc2cc(C(C)(C)C)c(O)c(C(C)(C)C)c2)n[nH]c1=S,inactive
6,CC(C)C[C@H](NC(=O)c1nc[nH]c1C(=O)NCC(=O)OC(C)(C)C)C(=O)OCc1ccccc1,inactive
7,CC(=O)Nc1ccc(NC2=Nc3ccccc3N3C2=Nc2c(c(C)nn2-c2ccccc2)C3c2ccccc2)cc1 (centres undefined),inactive
8,COC(=O)[C@@H]1[C@@H](C(=O)OC)C2(c3ccccc3-c3ccccc32)N(c2ccc(Cl)cc2)N1C#N,> 10 µM (inactive)
9,CCOc1ccc(N2C(=O)/C(=C\c3ccc(O)c(OC)c3)S(=O)(=O)C2c2cccc([N+](=O)[O-])c2)cc1 (centres undefined),> 10 µM (inactive)
10,CCOC(=O)CN1C(c2ccc(O)cc2)Nc2ccc(Br)cc2C1c1ccccc1 (centres undefined),> 10 µM (inactive)
11,Cc1cc(C)c(S(=O)(=O)c2ccccc2)c(OC(=O)c2cc(F)c(F)cc2Cl)n1,inactive
12,CCOc1ccc2nc(NC(=O)CSc3nc4c(c(=O)n(C)c(=O)n4C)n3C(C)C)sc2c1,> 10 µM (inactive)
13,CCCCn1c(/N=C/c2c[nH]c3ccccc23)nc2ccccc21,> 10 µM (inactive)
14,O=C(/C=C\c1cn(-c2ccccc2)nc1-c1ccccc1)Nc1nccs1,inactive
15,CC(=O)N(C1=C(Cl)C(=O)c2ccccc2C1=O)C1CCCCC1,inactive
16,CCc1ccc(/C=c2\s/c(=C\C(=O)C(C)(C)C)[nH]c2=O)cc1,inactive
17,O=[N+]([O-])c1c(NCCCO)cc(Sc2ccc(Cl)cc2)c2nonc12,inactive
18,CCCCc1c(C)nn(-c2nnc3c4ccccc4n(CC)c3n2)c1C,> 10 µM (inactive)
19,O=C1C(Cl)=C(Nc2ccccc2)C(=O)c2ccccc21,inactive
20,CCCCCn1c(SCCC(C)C)nc2c1c(=O)[nH]c(=O)n2C,inactive
21,CCCN1C=CC(=C2C(=O)c3ccccc3C2=O)C=C1,inactive
22,O=C(O)c1ccc(N/N=C/c2ccc3nccnc3c2)cc1,1.83 µM
23,C/C(=N\N=C1\NC(=O)C(CC(=O)Nc2ccc(C)c(Cl)c2)S1)C(C)(C)C (centres undefined),4.96 µM
24,O=C1C(=O)c2ccc(-c3ccccc3)cc2-c2ccccc21,3.26 µM
